Key:
[1] = test system: β3-tubulin, MAP2 and GAP-43; experiment: Western blot of neuronal biomarkers in PC12 cells; format: cell-based, rat; conditions: PACA and NGF, alone or in combination
Method: The neuritogenic potential of PACA was verified by the induction of the main neuronal biomarkers (i.g., β3-tubulin, MAP-2 and GAP43). (A) Representative images for the potentiation of NGF-induced neurite outgrowth in PC12 cells by PACA. PC12 cells were treated with NGF (2 ng/ml) and PACA, alone or in combination. The cells were stained with neurite outgrowth staining kit and imaged under a fluorescence microscope. (B) Quantification of neurite outgrowth in Panel A. Following the staining of neurites, the cells bearing neurites longer than 20 μm were counted under a fluorescence microscope. **, p<0.01 (sample vs NGF alone). (C) Western blot analysis of neuronal biomarkers. The cells were treated with NGF and PACA, alone or in combination, whereas the control cells were treated with vehicle for 72 hours. The cellular proteins were extracted and detected by Western blot analysis for the expression of neuron marker. GAPDH was detected as the control of protein loading.
The neuritogenic activity of PACA was evaluated in rat dopaminergic PC12 cells. […] The cells were stained by a neurite outgrowth kit, and subsequently analyzed for neurites (>20 μm) under a fluorescence microscope. […] Following the treatment with PACA and NGF, alone or in combination, PC12 cells were analyzed by Western blotting for the expression of neuronal biomarkers (i.g., β3-tubulin, MAP2 and GAP-43).

[2] = Pharmacokinetic analysis of PACA after oral administration, plasma and brain, LC-MS/MS MRM; format: in vivo, Sprague Dawley rats
Method: (A) HPLC-MS/MS detection of PACA. (B) Determination of PACA in mouse plasma. (C) Determination of PACA in mouse brain tissues. PACA (30 mg/kg) was orally administered into mice. Blood samples and brain tissues were collected after different times (0, 0.5, 1, 2, 3, 6, 9, 12 or 24 h). PACA was determined by liquid chromatography-mass spectrometric multiple reaction monitoring-based strategy.
Nine male Sprague Dawley rats with a body weight of 240-280 g were purchased from Laboratory Animal Unit, HKU. The animals were housed in a qualified facility run on a 12-hour light and dark cycle. The animals were allowed unrestricted access to food and water. The protocol for the animal studies was approved by Li Ka Shing Faculty of Medicine, University of Hong Kong. The rats were administered with PACA (30 mg/kg) in 50% propanediol in saline by oral gavage whereas the control animal received vehicle only. The rats were anesthetized by isoflurane at the time points of 0, 0.5, 1, 2, 3, 6, 9, 12 or 24 h. Blood samples were collected by cardiac puncture using pre-heparinized syringes and immediately transferred into the tubes containing acetonitrile for preventing esterase metabolism. Blood samples were centrifuged at 5700 rpm for 10 minutes at 4° C. to recover plasma. Brain tissues were excised after the removal of blood vessels, blotted dry with clean paper towels, and weighed. All samples were stored at −80° C. before use. HPLC separation was performed on a Phenomenex Synergi hydro-RP C18 reversed phase column (150 mm×4.6 mm, 4 m) (Torrance, Calif., USA) under the control of Agilent HLPC 1100 system (Santa Clara, Calif., USA). Gradient was set using mobile phase: A, water with 0.05% (v/v) formic acid, B, acetonitrile with 0.05% (v/v) formic acid as follows: 0-2.5 min, 40-50% B; 2.5-5.5 min, 50-80% B; 5.5-11.5 min, 80% B; 11.5-12 min, 80-40% B, 12-15 min, 40% B. Flow rate was constant at 0.7 mL/min. The column temperature was maintained at 30° C. Sample volume for injection was 20 μL. […] Multiple-reaction monitoring (MRM) detection was used for the quantitation of all analytes.

heme oxygenase-1 (HO-1) = experiment: HO-1 induction in PC12 cells, Western blot; format: cell-based, rat; conditions: PACA 5 to 100 μM for 24 hours or 20 μM for 3, 6, 12, 24 hours
Method: Induction of HO-1 expression is a key mechanism underlying the neuritogenic effects of PACA. (A & B) Western blot analysis of HO-1 induction. Following PACA treatment at different concentrations (A) and for different time points (B), the cellular proteins were isolated and analyzed by Western blotting for HO-1 expression. GAPDH was analyzed as the control of protein loading. (C) PACA stimulated neurite outgrowth via HO-1-mediated mechanism. PC12 cells were treated with NGF (2 ng/ml) in combination with PACA (5 μM, 20 μM) in presence or absence of HO-1 inhibitor SnPP for 72 hours. Cells were stained by neurite outgrowth staining kit and imaged under a fluorescence microscope. (D) Role of HO-1 induction in the neuritogenic activity of PACA. The images captured in Panel C were analyzed for the number of neurite bearing cells. The cells bearing neurites longer than 20 μm were counted. The values represent means±SD (n=3). **, p<0.01 (+SnPP vs −SnPP).
It is well-known that direct modification of Keap1 causes the dissociation of the Nrf2-Keap1 complex and subsequent expression of heme oxygenase-1 (HO-1). Following the treatment with PACA at the concentrations ranging from 5 to 100 μM for 24 hours or at the concentration of 20 μM for 3, 6, 12, 24 hours, PC12 cells were analyzed by Western blotting for HO-1 induction.

In the case of C#CCNC(=O)/C=C/c1ccc(O)c(O)c1 [PACA, (E)-3-(3,4-dihydroxyphenyl)-N-(prop-2-yn-1-yl)acrylamide], the “induction of neuronal markers β3-tubulin, MAP2 and GAP-43” value [1] was “enhanced the neuritogenic activity of NGF in a concentration-dependent manner”, the “bioavailability in plasma and brain tissues” value ([2]; after oral administration) was “rapidly bioavailable in plasma and brain tissues” and the “time to peak concentration in blood” value ([2]; oral administration, 30 mg/kg) was ≤ 60 min. For the same compound, the “time to peak concentration in brain tissues” value ([2]; oral administration, 30 mg/kg) was ≤ 60 min and the HO-1 expression (heme oxygenase-1 (HO-1)) was “induced HO-1 expression in a time- and concentration-dependent manner”.

From patent US10259777B2, “(E)-3-(3,4-dihydroxyphenyl)-N-(prop-2-yn-1-yl)acrylamide for treatment of neurodegenerative diseases” (THE UNIVERSITY OF HONG KONG, priority 2015, dated 2019)
